{"source": "patent US7718641B2", "about": "“Pyrrolo [3,4-H] isoquinoline compounds and methods for modulating gated ion channels” (Aros Pharma ApS, priority 2005, dated 2010)", "key": {"heteromeric hASIC1a+3": {"target": "T1, heteromeric hASIC1a+3 (Homo sapiens, UniProt P78348+Q9UHC3)", "T1 sequence (P78348 1-528)": "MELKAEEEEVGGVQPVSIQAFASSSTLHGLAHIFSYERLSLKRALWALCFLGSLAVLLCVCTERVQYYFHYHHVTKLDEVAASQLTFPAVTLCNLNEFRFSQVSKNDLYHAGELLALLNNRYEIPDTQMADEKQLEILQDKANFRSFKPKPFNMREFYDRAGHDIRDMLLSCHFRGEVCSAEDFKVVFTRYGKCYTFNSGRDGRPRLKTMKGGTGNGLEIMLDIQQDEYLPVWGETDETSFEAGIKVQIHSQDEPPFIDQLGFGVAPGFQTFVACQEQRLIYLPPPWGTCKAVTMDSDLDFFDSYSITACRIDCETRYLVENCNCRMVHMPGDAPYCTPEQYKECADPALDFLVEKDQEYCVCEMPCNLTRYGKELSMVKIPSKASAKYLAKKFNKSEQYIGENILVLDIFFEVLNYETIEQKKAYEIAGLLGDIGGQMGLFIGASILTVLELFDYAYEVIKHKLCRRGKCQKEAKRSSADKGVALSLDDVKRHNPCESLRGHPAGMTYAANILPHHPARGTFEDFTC", "T1 sequence (Q9UHC3 1-531)": "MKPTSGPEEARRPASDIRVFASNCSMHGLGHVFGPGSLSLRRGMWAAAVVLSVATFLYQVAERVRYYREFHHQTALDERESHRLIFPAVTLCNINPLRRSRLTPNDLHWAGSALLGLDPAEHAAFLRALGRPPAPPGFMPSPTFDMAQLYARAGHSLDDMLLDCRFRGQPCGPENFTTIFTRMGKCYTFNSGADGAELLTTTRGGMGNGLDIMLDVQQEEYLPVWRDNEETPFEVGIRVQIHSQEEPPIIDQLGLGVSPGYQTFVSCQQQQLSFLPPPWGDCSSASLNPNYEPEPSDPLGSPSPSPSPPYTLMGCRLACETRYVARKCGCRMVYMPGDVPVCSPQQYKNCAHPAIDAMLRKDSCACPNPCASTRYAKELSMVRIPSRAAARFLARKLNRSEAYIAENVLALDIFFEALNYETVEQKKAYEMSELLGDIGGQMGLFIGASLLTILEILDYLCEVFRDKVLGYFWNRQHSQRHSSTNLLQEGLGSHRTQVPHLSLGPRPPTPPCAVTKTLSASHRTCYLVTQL", "assay": "Two-electrode voltage clamp in Xenopus laevis oocytes expressing heteromeric hASIC1a+3", "format": "cell-based", "parameters": "expressed in transfected cells", "conditions": "30 μM, OpusExpress", "protocol": "(§1) Two-electrode voltage clamp electrophysiological assays in Xenopus laevis oocytes expressing gated ion channels are performed as follows:\n(§2) Oocytes are surgically removed from adult Xenopus laevis and treated for 2 h at room temperature with 1 mg/ml type I collagenase (Sigma) in Barth's solution under mild agitation. Selected oocytes at stage IV-V are defolliculated manually before nuclear microinjection of 2.5-5 ng of a suitable expression vector, such as pcDNA3, comprising the nucleotide sequence encoding a gated ion channel subunit protein. In such an experiment, the oocytes express homomultimeric proton-gated ion channels on their surface. In an alternate experiment, one, two, three or more vectors comprising the coding sequences for distinct gated ion channel subunits are co-injected in the oocyte nuclei. […] After 2-4 days of expression at 19° C. in Barth's solution containing […] gentamicin and 1.8 mM CaCl2, gated ion channels are activated by applying an acidic solution (pH <7) and currents are recorded in a two electrode voltage-clamp configuration, using an OC-725B amplifier (Warner Instruments). Currents are acquired and digitized at 500 Hz on an Apple Imac G3 computer with an A/D NB-MIO-16XL interface (National Instruments) and recorded traces are post-filtered at 100 Hz in Axograph (Axon Instruments) (Neher, E. and Sakmann, B. (1976) Nature 260:799-802). […]"}, "homomeric hASIC1a": {"target": "T2, homomeric hASIC1a (Homo sapiens, UniProt P78348)", "T2 construct": "expressed in transfected cells; host or cells: Xenopus laevis oocytes (nuclear cDNA microinjection)", "T2 sequence (P78348 1-528)": "T1 sequence (P78348 1-528)", "assay": "Two-electrode voltage clamp in Xenopus laevis oocytes expressing homomeric hASIC1a", "format": "cell-based", "conditions": "30 μM, OpusExpress", "protocol": "as §1, §2"}}}
{"smiles": "COc1ccc(F)cc1-c1cc2c(c3c1CCN(C)C3)NC(=O)/C2=N/O", "note": "[Compound A, 5-(5-fluoro-2-methoxyphenyl)-6,7,8,9-tetrahydro-3-(hydroxyimino)-8-methyl-1H-pyrrolo[3,2-h]isoquinoline-2(3H)-one]", "values": [{"measurement": "effect on inward currents elicited by pH 6.5, heteromeric hASIC1a+3", "setting": "heteromeric hASIC1a+3", "value": "effectively modulates the activity"}, {"measurement": "effect on inward currents elicited by pH 6.5, homomeric hASIC1a", "setting": "homomeric hASIC1a", "value": "effectively modulates the activity"}]}
